System: men and women with overactive bladder
Assay: Phase 3 study of vibegron 75 mg vs placebo and tolterodine ER 4 mg, 12 weeks, efficacy (voiding and urine volume diary)
Format: in vivo, human
Details: for First 50% Reduction in Urgency Episodes, Events / First 100% Reduction in UUI Episodes, Events: events of Events/Censored
Procedure: Enrollment of patients included individuals with OAB Wet (those with UUI, the involuntary loss of urine accompanied by urgency) and OAB Dry (those without UUI). A total of 1,518 patients were randomized across 215 study sites into one of three groups for a 12-week treatment period.
The study consisted of a Screening Period (1 to 5 weeks), a single-blind Run-in Period (2 weeks), a randomized double-blind Treatment Period (12 weeks), and a Follow-up Period (4 weeks).
Tolterodine ER 4 mg was the active control. […] Between the Baseline and Week 12 Visits, patients had study assessments at Week 4 and Week 8.
The Patient Voiding Diary was used by participants (via the eDiary or paper Diary) to record the frequency of daily OAB symptoms including all micturitions, urgency, incontinence, and main reason for incontinence by selecting the respective box for each symptom occurring during the course of a given day and night.
Urine volume data were collected separately by patients using the Urine Volume component of the eDiary, or the paper Urine Volume Chart. The Urine Volume Chart is a tool used in clinical practice and clinical investigation to assess voiding functions over a 24-hour period and is regarded as a useful instrument in the investigation of patients with voiding symptoms. Urine volume may be collected during any one (1) of the 7 Diary Days prior to the visit, and it should be recorded for ˜24 hours starting from the time the patient gets up for the day and continues until the time the patient gets up for the day on the next day.
For the purpose of this study, the number of micturitions was defined as the number of times a patient has voided in the toilet as indicated on the Patient Voiding Diary. Average daily micturitions were calculated using the daily entries in the Patient Voiding Diary, which was completed over the 7 days prior to each study visit. Average daily number of micturitions were calculated as the total number of micturitions that occurred on a Complete Diary Day divided by the number of Complete Diary Days in the Patient Voiding Diary. A complete diary day required confirmation by the patient in the Patient Voiding Diary that all voids and leakages had been recorded for the diary day. Baseline was defined as the average number of micturitions occurring during the last evaluable diary prior to the Baseline Visit.
The number of UUI episodes was defined as the number of times a patient had checked “urge” as the reason for accidental urine leakage. Average daily UUI episodes at each study visit were calculated in the same manner as described above for the micturition endpoint. The UUI endpoint were analyzed using only OAB Wet patients.
For the analysis of the co-primary endpoints (change from baseline in average number of daily micturitions at Week 12 and change from baseline in average number of daily urge urinary incontinence episodes at Week 12, and placebo adjustment of each), a mixed model for repeated measure (MMRM) with restricted maximum likelihood estimation was used. This model corrects for dropout and accounts for the fact that measurements taken on the same patient over time tend to be correlated by using all available information on patients within the same covariate set to derive an estimate of the treatment effect for a dropout-free population. The analysis model for each efficacy endpoint includes terms for treatment, visit, OAB Type (Wet vs Dry), Sex (Female vs Male), Region (US vs Rest of World), baseline score, and interaction of visit by treatment.
Primary inferences were drawn from treatment differences for the changes from baseline derived from the MMRM models at Week 12. As part of secondary objectives, the treatment differences for each post baseline visit were also derived using the same MMRM model. […]

[1] = Week 12, Age ≥ 75 years (posthoc analysis)
[2] = Week 12, No Prior ACH Use in last 12 Mo.
[3] = Week 12, No Prior B3 Agonist Use in last 12 Mo.
[4] = Week 12, Prior ACH Use in last 12 Mo.
[5] = Week 12, Prior B3 Agonist Use in last 12 Mo.

Compound: O=C(Nc1ccc(C[C@@H]2CC[C@H]([C@H](O)c3ccccc3)N2)cc1)[C@@H]1CCc2nccc(=O)n21 [Vibegron, (6S)-N-[4-[[(2S,5R)−5-[(R)-hydroxy(phenyl)methyl]pyrrolidin−2-yl]methyl]phenyl]−4-oxo−7,8-dihydro−6H-pyrrolo[1,2-a]pyrimidine−6-carboxamide]
- Change from baseline in average volume voided per micturition, LS Mean (SE) (Week 8): 21.4 (3.20) mL
- Estimated Incidence of Subjects with 50% Decrease from Baseline (urgency episodes) (Week 8): 31.8
- Estimated Incidence of Subjects with 100% Decrease from Baseline (UUI episodes) (Week 8): 21.4
- Total Incontinence, Active - Placebo LS Mean Difference (SE) (Week 8): −0.7 (0.15)
- Urgency episodes, Active - Placebo LS Mean Difference (Week 8): −0.8
- First 50% Reduction in Urgency Episodes, Events (Week 8): 166/360
- First 100% Reduction in UUI Episodes, Events (Week 8): 86/317
- Average Daily Number of Total Incontinence, Mean (SD) (Week 12): 1.89 (3.120)
- Average daily number of urgency episodes, Mean (SD) (Week 12): 5.29 (4.500)
- Average volume voided per micturition, Active - Placebo LS Mean Difference (Week 12): 21.2 mL
- Average volume voided per micturition, Week 12 Mean (SD) (Week 12): 175.3 (81.78) mL
- Change from Baseline in Average Daily Number of Total Incontinence, LS Mean (SE) (Week 12): −2.3 (0.15)
- Change from baseline in average daily number of urgency episodes, LS Mean (Week 12): −2.7
- Change from baseline in average volume voided per micturition, LS Mean (SE) (Week 12): 23.5 (3.26) mL
- Estimated Incidence of Subjects with 50% Decrease from Baseline (urgency episodes) (Week 12): 43.8
- Estimated Incidence of Subjects with 100% Decrease from Baseline (UUI episodes) (Week 12): 30.0
- Total Incontinence, Active - Placebo LS Mean Difference (SE) (Week 12): −0.7 (0.16)
- Urgency episodes, Active - Placebo LS Mean Difference (Week 12): −0.7
- Micturitions: Week 12 CFB Mean (descriptive statistics) (Week 12, <65 yrs): −1.99
- UUI: Week 12 CFB Mean (descriptive statistics) (Week 12, African American): −1.61
- UUI: Week 12 CFB Median (Week 12, African American): −1.26
- Micturitions: Week 12 CFB LS Mean (95% CI) (Week 12, Age < 65 years): −1.7
- UUI: Week 12 CFB LS Mean (95% CI) (Week 12, Age < 65 years): −2.0
- UUI: Week 12 CFB Mean (descriptive statistics) (Week 12, Age < 65 years): −2.08
- Micturitions: Week 12 CFB LS Mean (95% CI) (Week 12, Age ≥ 65 years): −1.9
- UUI: Week 12 CFB LS Mean (95% CI) (Week 12, Age ≥ 65 years): −2.0
- UUI: Week 12 CFB Mean (descriptive statistics) (Week 12, Age ≥ 65 years): −1.94
- Micturitions: Week 12 CFB LS Mean (95% CI) [1]: −2.1
- UUI: Week 12 CFB LS Mean (95% CI) [1]: −2.0
- UUI: Week 12 CFB Mean (descriptive statistics) (Week 12, Asian): −0.07
- UUI: Week 12 CFB Median (Week 12, Asian): 0.00
- Micturitions: Week 12 CFB LS Mean (95% CI) (Week 12, Females): −1.9
- Micturitions: Week 12 CFB Mean (descriptive statistics) (Week 12, Females): −2.05
- UUI: Week 12 CFB LS Mean (95% CI) (Week 12, Females): −2.1
- UUI: Week 12 CFB Mean (descriptive statistics) (Week 12, Females): −2.10
- Micturitions: Week 12 CFB LS Mean (95% CI) (Week 12, Males): −1.7
- Micturitions: Week 12 CFB Mean (descriptive statistics) (Week 12, Males): −1.97
- UUI: Week 12 CFB LS Mean (95% CI) (Week 12, Males): −1.6
- UUI: Week 12 CFB Mean (descriptive statistics) (Week 12, Males): −1.35
- Micturitions: Week 12 CFB Mean (descriptive statistics) (Week 12, Males with BPH): −1.50
- UUI: Week 12 CFB Mean (descriptive statistics) (Week 12, Males with BPH): −1.09
- Micturitions: Week 12 CFB Mean (descriptive statistics) (Week 12, Males without BPH): −2.26
- UUI: Week 12 CFB Mean (descriptive statistics) (Week 12, Males without BPH): −1.51
- Micturitions: Week 12 CFB Mean (descriptive statistics) [2]: −2.05
- UUI: Week 12 CFB Mean (descriptive statistics) [2]: −2.12
- Micturitions: Week 12 CFB Mean (descriptive statistics) [3]: −2.01
- UUI: Week 12 CFB Mean (descriptive statistics) [3]: −2.03
- Micturitions: Week 12 CFB LS Mean (95% CI) (Week 12, Non-White): −1.7
- Micturitions: Week 12 CFB Mean (descriptive statistics) (Week 12, Non-White): −2.18
- UUI: Week 12 CFB LS Mean (95% CI) (Week 12, Non-White): −1.3
- UUI: Week 12 CFB Mean (descriptive statistics) (Week 12, Non-White): −1.14
- UUI: Week 12 CFB Median (Week 12, Non-White): −1.00
- Micturitions: Week 12 CFB LS Mean (95% CI) (Week 12, Overall): −1.8
- Micturitions: Week 12 CFB Mean (descriptive statistics) (Week 12, Overall): −2.04
- UUI: Week 12 CFB LS Mean (95% CI) (Week 12, Overall): −2.0
- UUI: Week 12 CFB Mean (descriptive statistics) (Week 12, Overall): −2.01
- Micturitions: Week 12 CFB Mean (descriptive statistics) [4]: −1.97
- UUI: Week 12 CFB Mean (descriptive statistics) [4]: −1.46
- Micturitions: Week 12 CFB Mean (descriptive statistics) [5]: −2.83
- UUI: Week 12 CFB Mean (descriptive statistics) [5]: −1.64
- Micturitions: Week 12 CFB LS Mean (95% CI) (Week 12, Region: Non-US): −1.8
- Micturitions: Week 12 CFB Mean (descriptive statistics) (Week 12, Region: Non-US): −2.26
- UUI: Week 12 CFB LS Mean (95% CI) (Week 12, Region: Non-US): −2.4
- UUI: Week 12 CFB Mean (descriptive statistics) (Week 12, Region: Non-US): −2.60
- Micturitions: Week 12 CFB LS Mean (95% CI) (Week 12, Region: US): −1.9
- Micturitions: Week 12 CFB Mean (descriptive statistics) (Week 12, Region: US): −2.01
- UUI: Week 12 CFB LS Mean (95% CI) (Week 12, Region: US): −1.9
- UUI: Week 12 CFB Mean (descriptive statistics) (Week 12, Region: US): −1.92
- Micturitions: Week 12 CFB LS Mean (95% CI) (Week 12, White): −1.8
- Micturitions: Week 12 CFB Mean (descriptive statistics) (Week 12, White): −2.01
- UUI: Week 12 CFB LS Mean (95% CI) (Week 12, White): −2.2
- UUI: Week 12 CFB Mean (descriptive statistics) (Week 12, White): −2.23
- UUI: Week 12 CFB Median (Week 12, White): −1.78
- Micturitions, Week 12 LS Mean Change from Baseline (Placebo-Adjusted) (Week 12, co-primary endpoint): −0.5
- UUI Episodes, Week 12 LS Mean Change from Baseline (Placebo-Adjusted) (Week 12, co-primary endpoint): −0.6
- First 50% Reduction in Urgency Episodes, Events (Week 12): 225/301
- First 100% Reduction in UUI Episodes, Events (Week 12): 119/284
- Total Incontinence Episodes, Week 12 LS Mean Change from Baseline (Placebo-Adjusted) (Week 12, secondary endpoint): −0.7
- Urgency Episodes, Week 12 LS Mean Change from Baseline (Placebo-Adjusted) (Week 12, secondary endpoint): −0.7
- Micturitions, change at Week 12, mean (SD) (Week 12, subpopulation Age ≥65 years): −2.10 (2.83)
